Test results published in PubChem BioAssay AID608 (Sanford-Burnham Center for Chemical Genomics, 2007).
The source made the active and inactive calls. The rule behind the calls is not given here.

molecular target: Peptidyl-prolyl cis-trans isomerase FKBP1A (Homo sapiens) (UniProt P62942); assay: small-molecule binding to FKBP12 – biophysical, NMR detection (AID 608); conditions: purified FKBP12
Sequence (P62942 whole entry, looked up): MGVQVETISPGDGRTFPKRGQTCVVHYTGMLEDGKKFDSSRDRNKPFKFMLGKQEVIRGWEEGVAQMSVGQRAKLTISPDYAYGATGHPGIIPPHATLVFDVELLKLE

Structure (SMILES)	Kd
O=C(O)c1ccc(-c2cccs2)cc1	> 4 mM (inactive)
O=C(O)Cn1nnn(-c2ccccc2)c1=S	> 4 mM (inactive)
CN=C(C)c1c(O)n(C)c(=O)n(C)c1=O	> 4 mM (inactive)
CCOC(=O)c1ccc(F)cc1F	> 4 mM (inactive)
CC(=O)O[C@@H]1CC[C@@]2(C)C(CC[C@]3(C)C2CC=C2C4CC(C)(C)CC[C@]4(C(=O)O)CC[C@]23C)C1(C)C (some centres not stated)	> 4 mM (inactive)
COc1ccccc1/C=C\C(=O)O	> 4 mM (inactive)
CCOc1ccc(Cl)cc1S(=O)(=O)N1CCCC1	> 4 mM (inactive)
COc1cc2c(cc1OC)[C@@H]1C(=O)c3ccc4c(c3O[C@@H]1CO2)C=CC(C)(C)O4	> 4 mM (inactive)
CCOc1ccccc1C(=O)NC1=NCCS1	> 4 mM (inactive)
C[C@@H]1O[C@@H](O[C@H]2[C@H](Oc3cc(O)c4c(=O)cc(-c5ccc(O)cc5)oc4c3)O[C@H](CO)[C@@H](O)[C@@H]2O)[C@H](O)[C@H](O)[C@H]1O	> 4 mM (inactive)
CCc1cccc(C)c1NC(=O)c1cc(C)oc1C	> 4 mM (inactive)
CC(C)c1ccccc1OCC(=O)N1CCOCC1	> 4 mM (inactive)
C/C=C1\[C@H]2C=C(C)C[C@]1(N)c1ccc(=O)[nH]c1C2	> 4 mM (inactive)
Nc1ccc(O)cn1	> 4 mM (inactive)
NC(=O)c1sc2ccccc2c1Cl	> 4 mM (inactive)
CC(=O)Nc1cccc(N(C)S(C)(=O)=O)c1	> 4 mM (inactive)
CN1CCN(C(=O)C2CCCNC2)CC1 (configuration not stated)	> 4 mM (inactive)
Cc1nnc(SCC(=O)N2CCCCC2)s1	> 4 mM (inactive)
COCCOc1nc2ccccc2nc1C	> 4 mM (inactive)
O=S(=O)(N1CCOCC1)n1cnc2ccccc21	inactive
O=c1c(O)c(-c2ccccc2)oc2ccccc12	> 4 mM (inactive)
NCc1cn2ccccc2n1	> 4 mM (inactive)
CN1C(=O)CC[C@H]1c1cccnc1	> 4 mM (inactive)
O=C1CS/C(=N/S(=O)(=O)c2ccccc2)N1	> 4 mM (inactive)

Structure (SMILES)	Kd
O=C1CCNc2ccccc2N1	> 4 mM (inactive)
CC1=CC(C)C(C(=O)O)C(C(=O)N2CCN(C)CC2)C1 (configuration not stated)	> 4 mM (inactive)
Cc1cc(C)n2nc(Cc3ccccc3)nc2n1	> 4 mM (inactive)
CC(=O)Nc1nc2c(s1)C(=O)NCCC2	> 4 mM (inactive)
O=C(O)C1=CCCNC1	> 4 mM (inactive)
COc1cc(CNCc2cccs2)ccc1OCC(=O)N1CCOCC1	> 4 mM (inactive)
CCCCCC1C(=O)CCC1CC(=O)OC (configuration not stated)	> 4 mM (inactive)
Cc1c(C)[n+](=O)c(-c2cccs2)c(C)n1[O-]	> 4 mM (inactive)
N#Cc1c(N)c(C(=O)c2ccccc2)n2c1CCC2	> 4 mM (inactive)
NC(=O)CN1CC(=O)NC(=O)C1	> 4 mM (inactive)
O=C(O)c1[nH]nc2c1COc1ccccc1-2	> 4 mM (inactive)
O=C1CSC(=Nc2ccc(C(=O)O)cc2)N1	> 4 mM (inactive)
Cc1nn(-c2ccccc2)nc1C(=O)O	> 4 mM (inactive)
C#CCCCCCCCCCCCC(O)CC(O)COC(C)=O (configuration not stated)	> 4 mM (inactive)
Cc1n[nH]c(C)c1CN	> 4 mM (inactive)
CC(=O)Nc1nnc(-c2ccccc2S(C)(=O)=O)o1	> 4 mM (inactive)
O=c1cc(-c2ccccc2)oc2c(O)c(O)ccc12	> 4 mM (inactive)
COC1C(O)C(O[C@H]2CC[C@]3(C=O)C4C(CC[C@]3(O)C2)[C@@]2(O)CC[C@H](C3=CC(=O)OC3)[C@@]2(C)C[C@H]4OC(C)=O)OC(C)C1OC(C)=O (some centres not stated)	> 4 mM (inactive)
CC(C)c1ccc(SCC(=O)N2CCOCC2)cc1	5e-05 mM
Cc1ccc(/C=N/n2c(C)nnc2C)cc1	> 4 mM (inactive)
Cc1ccc(-n2nnnc2SCC(N)=O)c(C)c1	> 4 mM (inactive)
Cc1cc2nc3c(=O)[nH]c(=O)nc-3n(CC(O)C(O)C(O)CO)c2cc1C (configuration not stated)	> 4 mM (inactive)
O=C(c1cccc(-n2cnnn2)c1)N1CCOCC1	> 4 mM (inactive)
N#Cc1cnn(Cc2ccc(Cl)cc2)c1N	> 4 mM (inactive)

Structure (SMILES)	Kd
CC12CN(CC#N)CC(C)(CN(CC#N)C1)C2=O	> 4 mM (inactive)
Cc1ccc(C(=O)N2CCOCC2)cc1Cl	> 4 mM (inactive)
O=C(O)C1CC(C2CCCCN2)CN2CCCCC12 (configuration not stated)	> 4 mM (inactive)
CN1CCC(O)N1C(=O)c1ccccc1O (configuration not stated)	> 4 mM (inactive)
O=C(Nc1c[nH]c(=O)[nH]c1=O)c1ccccc1F	> 4 mM (inactive)
NC(N)=NCCCCN=C(N)N	> 4 mM (inactive)
CN1CCC(NC(=O)c2cnccn2)CC1	> 4 mM (inactive)
N=C1/C(=C\c2ccccc2)C(=O)N=C2SC=NN12	> 4 mM (inactive)
N=C1/C(=C\c2ccco2)C(=O)N=C2SC=NN12	> 4 mM (inactive)
CCc1ccc(C(=O)N2CCCC2)s1	> 4 mM (inactive)
CC(=O)Nc1ccc(NC2SC(=O)NC2=O)cc1 (configuration not stated)	> 4 mM (inactive)
CCCS(=O)(=O)N1CCN(c2ccccc2F)CC1	> 4 mM (inactive)
CNC(=O)C(=O)Nc1ccc(C)c(C)c1	> 4 mM (inactive)
CC(=O)c1cc2c(s1)SCC(=O)N2	> 4 mM (inactive)
C=C1C2CC[C@@]3(C)[C@H](c4ccoc4)OC(=O)C[C@]13O[C@H]1CC(=O)C(C)(C)[C@H](C(O)C(=O)OC)[C@@]21C (some centres not stated)	> 4 mM (inactive)
O=C(c1cccc(C(F)(F)F)c1)N1CCCC1	> 4 mM (inactive)
NC(=O)C1CCN(C(=S)c2ccccc2)CC1	> 4 mM (inactive)
Cc1noc(C)c1C(=O)Nc1sc(C)c(C)c1C#N	> 4 mM (inactive)
CC1SC(=NC(=O)c2ccco2)NC1=O (configuration not stated)	> 4 mM (inactive)
NCC(N)C(=O)c1ccccc1 (configuration not stated)	> 4 mM (inactive)
NC(=O)CSc1ccc(-c2ccco2)nn1	> 4 mM (inactive)
O=C(O)C1CCN(S(=O)(=O)c2cccs2)CC1	> 4 mM (inactive)
O=S1(=O)CCC(NCCO)C1 (configuration not stated)	> 4 mM (inactive)
NC(=O)c1cc(Cl)c(C(N)=O)cc1Cl	> 4 mM (inactive)

Structure (SMILES)	Kd
COc1cc([C@@H]2c3cc4c(c(O)c3C[C@H]3COC(=O)[C@@H]32)OCO4)cc(OC)c1OC	> 4 mM (inactive)
O=C(c1ccncc1)N1CCN(C(=O)c2ccncc2)CC1	> 4 mM (inactive)
O=C(O)c1ccc(-n2ccnc2)cc1	> 4 mM (inactive)
Cc1cc(NC(=O)c2cccc(N3C(=O)CCC3=O)c2)no1	> 4 mM (inactive)
NC(=O)c1ccc(C(N)=O)cc1	> 4 mM (inactive)
CC1=C(C(N)=O)C(c2cccs2)C(C(N)=O)=C(C)N1	> 4 mM (inactive)
Nc1cc(=O)[nH]c(=S)n1-c1cccc(C(F)(F)F)c1	> 4 mM (inactive)
Cc1n[nH]c(=S)[nH]c1=O	> 4 mM (inactive)
NCc1ccc(-c2cccs2)cc1	> 4 mM (inactive)
CC1(C)C2CC[C@]3(C)C(C(=O)C=C4[C@@H]5C[C@@](C)(C(=O)O)CC[C@]5(C)CC[C@]43C)[C@@]2(C)CC[C@@H]1O (some centres not stated)	> 4 mM (inactive)
C/C=C(\C)C(=O)O[C@H]1C[C@@H](OC(C)=O)[C@@]2(C(=O)OC)CO[C@@H]3C2[C@]12CO[C@](O)(C(=O)OC)[C@H]2[C@](C)(C12O[C@@]1(C)[C@H]1C[C@@H]2OC2OC=C[C@@]21O)[C@@H]3O (some centres not stated)	> 4 mM (inactive)
Cn1c(NCc2ccco2)nc2ccccc21	> 4 mM (inactive)
Cc1cc(=O)[nH]c(N2CCCCC2)n1	> 4 mM (inactive)
Cc1cc(C(=O)N2CCN(c3ccccn3)CC2)c(C)o1	> 4 mM (inactive)
O=S(=O)(CCN1CCCC1)c1ccccc1	> 4 mM (inactive)
COC(=O)N(c1ccccc1)P1(=S)OCCO1	> 4 mM (inactive)
O=C(COc1ccc(S(=O)(=O)Nc2cccc(C(F)(F)F)c2)cc1)N1CCOCC1	inactive
C=C1CSc2nc(=O)c3c(C)c(C)sc3n21	> 4 mM (inactive)
Cc1ccc(-n2ncc(C#N)c2/N=C/N(C)C)cc1	> 4 mM (inactive)
CC(C)=CCC[C@](C)(O)C1CC=C(C)CC1 (some centres not stated)	> 4 mM (inactive)
OC12C=CC(CC1)CC2	> 4 mM (inactive)
O=C(CSc1ccnc(=O)[nH]1)NCc1ccco1	> 4 mM (inactive)
COc1ccc(NC(=O)N2CCCCC2)cc1	> 4 mM (inactive)
c1ccc2c(c1)[nH]c1cnccc12	> 4 mM (inactive)

Structure (SMILES)	Kd
NC(=O)Cn1nnc(-c2ccc(C(F)(F)F)cc2)n1	> 4 mM (inactive)
Cc1ccc(N2C(=O)CCC2=O)cc1	> 4 mM (inactive)
O=C1CSC(=Nc2cccc(C(F)(F)F)c2)N1	> 4 mM (inactive)
O=C1c2cccc3cc(S(=O)(=O)O)cc(c23)C(=O)N1O	> 4 mM (inactive)
Cc1cc(C)cc(NS(=O)(=O)N2CCOCC2)c1	inactive
O=C(NC1=NCCS1)c1ccc(Cl)s1	> 4 mM (inactive)
O=C1CC[C@]23/C=C/C(=O)NCCCCNCCCNC(=O)/C=C/c4ccc(c2c4)O[C@@H]3C1	> 4 mM (inactive)
O=C(O)Cn1c(C(F)(F)F)nc2ccccc21	> 4 mM (inactive)
O=C1NC(=O)/C(=C\c2ccncc2)S1	> 4 mM (inactive)
Cc1nccc2c1[nH]c1ccccc12	> 4 mM (inactive)
Nc1ccc(-n2cccn2)cc1	> 4 mM (inactive)
CC(C)=CCc1c(O)cc(C)oc1=O	> 4 mM (inactive)
CC(=O)O[C@@H]1CC2C(C)(C)[C@H](O)C[C@H](O)[C@]2(C)C2CC[C@@]3(C)C(=CC(=O)O[C@H]3c3ccoc3)[C@@]21C (some centres not stated)	> 4 mM (inactive)
COC(=O)C1CCN(c2ccc(Cl)nn2)CC1	> 4 mM (inactive)
c1ccc(CSc2ncccn2)cc1	> 4 mM (inactive)
O=c1ccc2ccccc2o1	> 4 mM (inactive)
NC(=O)c1ccsc1N	> 4 mM (inactive)
CCOc1cccc(C(=O)c2ccc(O)c(O)c2O)c1	> 4 mM (inactive)
S=C(Nc1ccccc1)Nc1nncs1	> 4 mM (inactive)
CC(NC(=O)c1ccco1)C1CCCO1 (configuration not stated)	> 4 mM (inactive)
O=C1C[C@@H](c2ccc(O)cc2)Oc2cc(O)cc(O)c21	> 4 mM (inactive)
